Results taken from PubChem BioAssay AID2060483 (Molecular Pharmacology Branch, DTP, NCI, 2025).
One block for each molecule: values may come before it.

Test system: K24384-001-R-PDC complex spheroids, viability
Assay: Anticancer human tumor K24384-001-R-PDC patient-derived pancreatic adenocarcinoma cell line growth inhibition [GQUAD]
Conditions: for IC50: curve of first compound; for viability, T/C: stronger effect = lower value
In short: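 Tumor cells were grown as complex spheroids with HUVEC endothelial cells and mesenchymal stem cells as stroma. G-quadruplex stabilizers were combined with targeted agents over half-log dilutions from near the clinical Cmax, or from 10 microM.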

[1] = second compound 0.0316 µM, first compound 0.0316 µM
[2] = second compound 0.0316 µM, first compound 0.316 µM
[3] = second compound 0.1 µM, first compound 0.0316 µM
[4] = second compound 0.1 µM, first compound 0.316 µM
[5] = second compound 0.316 µM, first compound 0.0316 µM
[6] = second compound 0.316 µM, first compound 0.316 µM
[7] = second compound 1 µM, first compound 0.0316 µM
[8] = second compound 1 µM, first compound 0.316 µM
[9] = second compound 3.16 µM, first compound 0.0316 µM
[10] = second compound 3.16 µM, first compound 0.316 µM
[11] = second compound 10 µM, first compound 0.0316 µM
[12] = second compound 10 µM, first compound 0.316 µM
[13] = second compound 0.0316 µM, first compound 0.1 µM
[14] = second compound 0.0316 µM, first compound 1 µM
[15] = second compound 0.0316 µM, first compound 3.16 µM
[16] = second compound 0.0316 µM, first compound 10 µM
[17] = second compound 0.1 µM, first compound 0.1 µM
[18] = second compound 0.1 µM, first compound 1 µM
[19] = second compound 0.1 µM, first compound 3.16 µM
[20] = second compound 0.1 µM, first compound 10 µM
[21] = second compound 0.316 µM, first compound 0.1 µM
[22] = second compound 0.316 µM, first compound 1 µM
[23] = second compound 0.316 µM, first compound 3.16 µM
[24] = second compound 0.316 µM, first compound 10 µM
[25] = second compound 1 µM, first compound 0.1 µM
[26] = second compound 1 µM, first compound 1 µM
[27] = second compound 1 µM, first compound 3.16 µM
[28] = second compound 1 µM, first compound 10 µM
[29] = second compound 3.16 µM, first compound 0.1 µM
[30] = second compound 3.16 µM, first compound 1 µM
[31] = second compound 3.16 µM, first compound 3.16 µM
[32] = second compound 3.16 µM, first compound 10 µM
[33] = second compound 10 µM, first compound 0.1 µM
[34] = second compound 10 µM, first compound 1 µM
[35] = second compound 10 µM, first compound 3.16 µM
[36] = second compound 10 µM, first compound 10 µM
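Also: spheroids exposed to compounds for seven days.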

SMILES: Cn1ncnc1[C@H]1c2n[nH]c(=O)c3cc(F)cc(c23)N[C@@H]1c1ccc(F)cc1 + CN(C)c1ccc(Nc2c3ccc(NC(=O)CCN4CCCC4)cc3nc3cc(NC(=O)CCN4CCCC4)ccc23)cc1
- IC50 (second compound 0.0316 µM): > 316 nM
- IC50 (second compound 0.1 µM): > 316 nM
- IC50 (second compound 0.316 µM): > 316 nM
- IC50 (second compound 1 µM): > 316 nM
- IC50 (second compound 3.16 µM): > 316 nM
- IC50 (second compound 10 µM): > 316 nM
- viability, T/C (second compound 0.0316 µM, first compound 0.000999 µM): 101%
- viability, T/C (second compound 0.0316 µM, first compound 0.00316 µM): 82.2%
- viability, T/C (second compound 0.0316 µM, first compound 0.00999 µM): 108%
- viability, T/C [1]: 81.4%
- viability, T/C (second compound 0.0316 µM, first compound 0.0999 µM): 80.9%
- viability, T/C [2]: 86.1%
- viability, T/C (second compound 0.1 µM, first compound 0.000999 µM): 82.9%
- viability, T/C (second compound 0.1 µM, first compound 0.00316 µM): 125%
- viability, T/C (second compound 0.1 µM, first compound 0.00999 µM): 92.2%
- viability, T/C [3]: 81.2%
- viability, T/C (second compound 0.1 µM, first compound 0.0999 µM): 107%
- viability, T/C [4]: 93%
- viability, T/C (second compound 0.316 µM, first compound 0.000999 µM): 85.1%
- viability, T/C (second compound 0.316 µM, first compound 0.00316 µM): 89.5%
- viability, T/C (second compound 0.316 µM, first compound 0.00999 µM): 105%
- viability, T/C [5]: 70%
- viability, T/C (second compound 0.316 µM, first compound 0.0999 µM): 79.7%
- viability, T/C [6]: 77.3%
- viability, T/C (second compound 1 µM, first compound 0.000999 µM): 90.4%
- viability, T/C (second compound 1 µM, first compound 0.00316 µM): 91.2%
- viability, T/C (second compound 1 µM, first compound 0.00999 µM): 88%
- viability, T/C [7]: 87.1%
- viability, T/C (second compound 1 µM, first compound 0.0999 µM): 100%
- viability, T/C [8]: 69.4%
- viability, T/C (second compound 3.16 µM, first compound 0.000999 µM): 101%
- viability, T/C (second compound 3.16 µM, first compound 0.00316 µM): 85.7%
- viability, T/C (second compound 3.16 µM, first compound 0.00999 µM): 77.8%
- viability, T/C [9]: 92.3%
- viability, T/C (second compound 3.16 µM, first compound 0.0999 µM): 91.7%
- viability, T/C [10]: 65.5%
- viability, T/C (second compound 10 µM, first compound 0.000999 µM): 88.2%
- viability, T/C (second compound 10 µM, first compound 0.00316 µM): 75.1%
- viability, T/C (second compound 10 µM, first compound 0.00999 µM): 82.9%
- viability, T/C [11]: 118%
- viability, T/C (second compound 10 µM, first compound 0.0999 µM): 110%
- viability, T/C [12]: 54.8%

- IC50 (second compound 0.0316 µM): > 10000 nM
- IC50 (second compound 0.1 µM): > 10000 nM
- IC50 (second compound 0.316 µM): 31.6 nM
- IC50 (second compound 1 µM): < 31.6 nM
- IC50 (second compound 3.16 µM): < 31.6 nM
- IC50 (second compound 10 µM): < 31.6 nM
SMILES: Cc1cccc(N(C)C(=O)C2C(O)CCN2c2nc(C)cc(C(F)(F)F)c2C#N)c1 (stereo unspecified) + Cc1cnc(CNC(=O)c2c(=O)c3ccc(N4CCCN(C)CC4)nc3n3c2sc2ccccc23)cn1
- viability, T/C [1]: 105%
- viability, T/C [13]: 81.5%
- viability, T/C [2]: 86.5%
- viability, T/C [14]: 74.2%
- viability, T/C [15]: 95.6%
- viability, T/C [16]: 107%
- viability, T/C [3]: 70%
- viability, T/C [17]: 73.8%
- viability, T/C [4]: 57.7%
- viability, T/C [18]: 69.6%
- viability, T/C [19]: 72.9%
- viability, T/C [20]: 71.6%
- viability, T/C [5]: 53.3%
- viability, T/C [21]: 56%
- viability, T/C [6]: 49.2%
- viability, T/C [22]: 57.4%
- viability, T/C [23]: 74.9%
- viability, T/C [24]: 55.8%
- viability, T/C [7]: 44.1%
- viability, T/C [25]: 44.4%
- viability, T/C [8]: 50.5%
- viability, T/C [26]: 44.6%
- viability, T/C [27]: 57.5%
- viability, T/C [28]: 41.7%
- viability, T/C [9]: 38.1%
- viability, T/C [29]: 42%
- viability, T/C [10]: 41.3%
- viability, T/C [30]: 49.3%
- viability, T/C [31]: 39.9%
- viability, T/C [32]: 41.5%
- viability, T/C [11]: 40.6%
- viability, T/C [33]: 37.4%
- viability, T/C [12]: 43.3%
- viability, T/C [34]: 44.4%
- viability, T/C [35]: 26.2%
- viability, T/C [36]: 36.4%

SMILES: CC(=O)O[C@H]1C(=O)[C@@]2(C)[C@H]([C@H](OC(=O)c3ccccc3)[C@]3(O)C[C@H](OC(=O)[C@H](O)[C@@H](NC(=O)c4ccccc4)c4ccccc4)C(C)=C1C3(C)C)[C@]1(OC(C)=O)CO[C@@H]1C[C@@H]2O + Cc1[nH]c2ccc(F)cc2c1-c1nc2c3cccnc3c3ncccc3c2[nH]1
- IC50 (second compound 0.0316 µM): < 31.6 nM
- IC50 (second compound 0.1 µM): < 31.6 nM
- IC50 (second compound 0.316 µM): < 31.6 nM
- IC50 (second compound 1 µM): < 31.6 nM
- IC50 (second compound 3.16 µM): < 31.6 nM
- IC50 (second compound 10 µM): < 31.6 nM
- viability, T/C [1]: 31.8%
- viability, T/C [13]: 25%
- viability, T/C [2]: 21.2%
- viability, T/C [14]: 16.8%
- viability, T/C [15]: 24.9%
- viability, T/C [16]: 28.7%
- viability, T/C [3]: 42.4%
- viability, T/C [17]: 23.7%
- viability, T/C [4]: 19.6%
- viability, T/C [18]: 18.7%
- viability, T/C [19]: 22.7%
- viability, T/C [20]: 27.1%
- viability, T/C [5]: 40%
- viability, T/C [21]: 28.3%
- viability, T/C [6]: 18.6%
- viability, T/C [22]: 22.3%
- viability, T/C [23]: 24.5%
- viability, T/C [24]: 29.1%
- viability, T/C [7]: 38.1%
- viability, T/C [25]: 28.2%
- viability, T/C [8]: 18.5%
- viability, T/C [26]: 26.1%
- viability, T/C [27]: 31.6%
- viability, T/C [28]: 31.4%
- viability, T/C [9]: 34.6%
- viability, T/C [29]: 18.9%
- viability, T/C [10]: 18.5%
- viability, T/C [30]: 16.7%
- viability, T/C [31]: 22.9%
- viability, T/C [32]: 18.1%
- viability, T/C [11]: 27.6%
- viability, T/C [33]: 23.2%
- viability, T/C [12]: 24.1%
- viability, T/C [34]: 15.4%
- viability, T/C [35]: 22.2%
- viability, T/C [36]: 23.1%
